Measurements published in publication PMC2248166, “Quantitative peptide binding motifs for 19 human and mouse MHC class I molecules derived using positional scanning combinatorial peptide libraries” (Immunome Research, 2008).
Where a SMILES comes first, the peptide text is derived from it.

Tests used:
Assay in all cases: biochemical
Format in all cases: binding
[1] = target: HLA B*1501 (Homo sapiens, UniProt P01889, A329T/A93T/A95T/C349S/D201E/D98Y/E187L/E204Q/E69M/E70A/K202T/N87E/Q94N/R155S/R180W/S121R/S35A/S48A/V306I/V36M/Y140S/Y91S)
[2] = target: HLA A*3001 (Homo sapiens, UniProt P04439, D140H/D185E/E176W/F33S/G80R/H175R/K168Q/R138E/R41S)
Chain of HLA A*3001 (P04439 25-365 limits assumed, stated change not applied): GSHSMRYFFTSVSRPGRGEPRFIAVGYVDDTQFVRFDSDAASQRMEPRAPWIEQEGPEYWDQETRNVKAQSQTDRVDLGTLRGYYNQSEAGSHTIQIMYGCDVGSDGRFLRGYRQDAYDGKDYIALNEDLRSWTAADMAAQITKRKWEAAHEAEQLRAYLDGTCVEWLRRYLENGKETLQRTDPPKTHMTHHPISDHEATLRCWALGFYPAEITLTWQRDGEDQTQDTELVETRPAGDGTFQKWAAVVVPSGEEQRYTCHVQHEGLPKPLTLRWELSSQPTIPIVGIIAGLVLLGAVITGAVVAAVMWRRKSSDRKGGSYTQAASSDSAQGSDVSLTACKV

[3] = target: HLA B*1503 (Homo sapiens, UniProt P01889, A329T/A93T/A95T/C349S/D201E/D98Y/E187L/E204Q/K202T/N87E/Q94N/R155S/R180L/S121R/S35A/V306I/V36M/Y140S/Y91S)
[4] = target: HLA A*3201 (Homo sapiens, UniProt P04439, A270S/D101S/D185E/E176V/E277Q/F133L/G103R/G107R/G231S/H175R/I121M/I218V/I322F/K168Q/L105A/L300P/L318F/M331R/P208A/P217A/Q94H/R106L/R138Q/S129P/T104I/T323A/T345S/V100E/V321M/V358M)

SMILES	IC50 [1]	IC50 [2]	IC50 [3]	IC50 [4]
CC[C@H](C)[C@H](N)C(=O)N[C@H](C(=O)N[C@@H](CC(C)C)C(=O)N[C@H](C(=O)N[C@@H](CC(N)=O)C(=O)N[C@H](C(=O)N[C@H](C(=O)N[C@@H](CC(N)=O)C(=O)N[C@H](C(=O)O)[C@@H](C)CC)C(C)C)C(C)C)[C@@H](C)O)[C@@H](C)O [3102.0320] (H-ITLTNVVNI-OH)	12 nM	35 nM	22 nM	77 nM
CC[C@H](C)[C@H](NC(=O)[C@H](CCCCN)NC(=O)[C@H](CC(N)=O)NC(=O)[C@H](CO)NC(=O)[C@H](Cc1ccc(O)cc1)NC(=O)[C@H](CCCCN)NC(=O)[C@H](CC(C)C)NC(=O)[C@@H](NC(=O)[C@@H](N)CCCCN)[C@@H](C)O)C(=O)O [3102.0326] (H-KTLKYSNKI-OH)	124 nM	38 nM	–	1.9 nM
CC[C@H](C)[C@H](NC(=O)[C@H](CC(N)=O)NC(=O)[C@H](Cc1ccccc1)NC(=O)[C@H](CCSC)NC(=O)[C@@H](N)CC(N)=O)C(=O)N[C@@H](CO)C(=O)N[C@@H](Cc1ccccc1)C(=O)N[C@@H](CCCNC(=N)N)C(=O)N[C@@H](Cc1ccccc1)C(=O)O [3102.0348] (H-NMFNISFRF-OH)	43 nM	27 nM	19 nM	3.6 nM
CC[C@H](C)[C@H](N)C(=O)N[C@@H](C)C(=O)N[C@@H](CO)C(=O)N[C@H](C(=O)N[C@@H](CC(C)C)C(=O)N[C@H](C(=O)N[C@H](C(=O)N[C@H](C(=O)N[C@H](C(=O)O)[C@@H](C)CC)[C@@H](C)O)C(C)C)[C@@H](C)CC)[C@@H](C)O [3102.0358] (H-IASTLIVTI-OH)	156 nM	10 nM	–	74 nM
CC[C@H](C)[C@H](NC(=O)[C@@H](NC(=O)[C@@H](NC(=O)[C@@H]1CCCN1C(=O)[C@H](CCCNC(=N)N)NC(=O)[C@H](Cc1ccccc1)NC(=O)[C@H](Cc1ccccc1)NC(=O)[C@@H](NC(=O)[C@@H](N)CCCCN)[C@@H](C)CC)[C@@H](C)O)[C@@H](C)O)C(=O)O [3102.0470] (H-KIFFRPTTI-OH)	93 nM	17 nM	–	1.1 nM
CC[C@H](C)[C@H](NC(=O)[C@H](CO)NC(=O)[C@@H](N)CC(C)C)C(=O)N[C@@H](Cc1ccccc1)C(=O)N[C@@H](Cc1ccccc1)C(=O)N[C@@H](Cc1ccc(O)cc1)C(=O)N[C@@H](CO)C(=O)N[C@@H](CO)C(=O)N[C@@H](Cc1ccccc1)C(=O)O [3102.1177] (H-LSIFFYSSF-OH)	17 nM	–	0.22 nM	129 nM
CC[C@H](C)[C@H](NC(=O)[C@@H](N)CCCCN)C(=O)N[C@@H](Cc1ccc(O)cc1)C(=O)N[C@@H](CC(N)=O)C(=O)N[C@H](C(=O)N[C@H](C(=O)N[C@@H](CC(N)=O)C(=O)N1CCC[C@H]1C(=O)N[C@@H](Cc1ccccc1)C(=O)O)[C@@H](C)O)C(C)C [3102.1223] (H-KIYNVTNPF-OH)	2.7 nM	–	7.5 nM	4.3 nM
CC(C)C[C@H](NC(=O)[C@@H](NC(=O)[C@@H](NC(=O)[C@H](CO)NC(=O)[C@H](CC(N)=O)NC(=O)[C@H](CCC(N)=O)NC(=O)[C@@H](N)CC(C)C)C(C)C)C(C)C)C(=O)N[C@@H](CCC(N)=O)C(=O)N[C@@H](Cc1ccccc1)C(=O)O [3102.1263] (H-LQNSVVLQF-OH)	1.5 nM	–	6.2 nM	7.3 nM
CSCC[C@H](NC(=O)[C@@H](N)Cc1c[nH]cn1)C(=O)N[C@@H](C)C(=O)N[C@@H](Cc1ccc(O)cc1)C(=O)N[C@@H](CO)C(=O)N[C@@H](Cc1ccccc1)C(=O)N[C@@H](CCC(N)=O)C(=O)N[C@H](C(=O)N[C@@H](Cc1ccccc1)C(=O)O)[C@@H](C)O [3102.1331] (H-HMAYSFQTF-OH)	0.25 nM	–	0.28 nM	16 nM
